{"source": "patent US20020128256A1", "about": "“Methods for the treatment or prevention of inflammatory diseases characterized by abnormal cell proliferation” (priority 1997, published 2002)", "key": {"[1]": {"molecular_target": "T1, Gardos channel of erythrocytes (Homo sapiens, UniProt O15554)", "T1 construct": "endogenous in cells; host or cells: erythrocytes", "T1 sequence (O15554 whole entry)": "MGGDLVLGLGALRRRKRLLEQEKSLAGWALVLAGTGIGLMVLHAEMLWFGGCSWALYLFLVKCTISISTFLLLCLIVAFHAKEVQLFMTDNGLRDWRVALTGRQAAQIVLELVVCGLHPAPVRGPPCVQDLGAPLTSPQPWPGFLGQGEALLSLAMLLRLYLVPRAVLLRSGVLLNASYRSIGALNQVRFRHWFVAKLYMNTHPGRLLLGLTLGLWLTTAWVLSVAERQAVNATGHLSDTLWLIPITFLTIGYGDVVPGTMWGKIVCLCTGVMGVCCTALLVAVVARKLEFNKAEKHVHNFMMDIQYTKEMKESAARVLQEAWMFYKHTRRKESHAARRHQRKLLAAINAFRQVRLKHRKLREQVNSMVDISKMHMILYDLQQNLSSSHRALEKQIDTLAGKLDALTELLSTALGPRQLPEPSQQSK", "test": "Gardos Channel Assay", "assay_type": "cell-based", "conditions": "for inhibition at 10 µM: read-out: Gardos Channel Assay Inhibition (%)"}, "Gardos channel": {"molecular_target": "Gardos channel (Homo sapiens, UniProt O15554)", "sequence (O15554 whole entry)": "as above", "design": "host or cells: sickle erythrocytes (printed for Clotrimazole only)", "conditions": "cited from earlier work"}, "[2]": {"system": "NIH 3T3 mouse fibroblast cells", "test": "Mitogenic Assay (mitogen-induced cell proliferation)", "assay_type": "cell-based", "conditions": "for Mitogenic Assay Inhibition (%) / inhibition at 10 µM: measured at 10 μM compound, NIH 3T3 cells; for inhibition at 10 µM: Mus musculus, read-out: Mitogenic Assay Inhibition (%); for pIC50: NIH 3T3 mouse fibroblast cells, mitogen-induced proliferation, read-out: Mitogenic Assay IC50"}, "HeLa": {"system": "HeLa", "test": "SRB antiproliferative assay, HeLa", "assay_type": "cell-based", "conditions": "Homo sapiens, HeLa, 120 h, read-out: SRB assay IC50", "experimental": "(§1) The antiproliferative assays described herein were performed using standard aseptic procedures and universal precautions for the use of tissues. Cells were propagated using RPMI 1640 media (Gibco) containing 2% N 5% fetal calf serum (Biowhittaker) at 37° C., 5% CO2 and 95% humidity. The cells were passaged using Trypsin (Gibco). Prior to addition of test compound, the cells were harvested, the cell number counted and seeded at 10,000 cells/well in 100 μl 5% fetal calf serum (FCS) containing RPMI medium in 96-well plates and incubated overnight at 37° C., 5% CO2 and 95% humidity.\n(§2) Following incubation, the cellular protein was determined with the ulforhodamine B (SRB) assay (Skehan P et al., 1990, J. Natl. Cancer Inst. 82:1107-1112)."}, "U118MG": {"system": "U118MG", "test": "SRB antiproliferative assay, U118MG", "assay_type": "cell-based", "conditions": "Homo sapiens, U-118-MG, 120 h, read-out: SRB assay IC50", "experimental": "as §1, §2"}, "HEPG2": {"system": "HEPG2", "test": "SRB antiproliferative assay, HEPG2", "assay_type": "cell-based", "conditions": "Homo sapiens, HepG2, 120 h, read-out: SRB assay IC50", "experimental": "as §1, §2"}, "ACHN": {"system": "ACHN", "test": "SRB antiproliferative assay, ACHN", "assay_type": "cell-based", "conditions": "Homo sapiens, ACHN, 120 h, read-out: SRB assay IC50", "experimental": "as §1, §2"}, "MMRU": {"system": "MMRU", "test": "SRB antiproliferative assay, MMRU", "assay_type": "cell-based, human", "conditions": "Homo sapiens", "experimental": "Cells were propagated using RPMI 1640 media (Gibco) containing 2% N 5% fetal calf serum (Biowhittaker) at 37° C., 5% CO2 and 95% humidity. The cells were passaged using Trypsin (Gibco). Prior to addition of test compound, the cells were harvested, the cell number counted and seeded at 10,000 cells/well in 100 μl 5% fetal calf serum (FCS) containing RPMI medium in 96-well plates and incubated overnight at 37° C., 5% CO2 and 95% humidity.\nas §2"}, "HT29": {"system": "HT29", "test": "SRB antiproliferative assay, HT29", "assay_type": "cell-based", "conditions": "Homo sapiens", "experimental": "as §1, §2"}, "MDA-MB-231": {"system": "MDA-MB-231", "test": "SRB antiproliferative assay, MDA-MB-231", "assay_type": "cell-based", "conditions": "Homo sapiens, 120 h, read-out: SRB assay IC50"}, "MCF7": {"system": "MCF7", "test": "SRB antiproliferative assay, MCF7", "assay_type": "cell-based", "conditions": "Homo sapiens", "experimental": "as §1, §2"}, "SK-MEL-28": {"system": "SK-MEL-28", "test": "SRB antiproliferative assay, SK-MEL-28", "assay_type": "cell-based", "conditions": "Homo sapiens, SK-MEL-28, 120 h, read-out: SRB assay IC50", "experimental": "as §1, §2"}, "HCT-15": {"system": "HCT-15", "test": "SRB antiproliferative assay, HCT-15", "assay_type": "cell-based", "conditions": "Homo sapiens, HCT-15, 120 h, read-out: SRB assay IC50", "experimental": "as §1, §2"}, "HUVEC": {"system": "HUVEC", "test": "SRB assay, normal cells HUVEC", "assay_type": "cell-based, human", "conditions": "Homo sapiens, HUVEC, 120 h, read-out: SRB assay IC50", "experimental": "as §1, §2"}, "HTB174": {"system": "HTB174", "test": "SRB antiproliferative assay, HTB174", "assay_type": "cell-based", "conditions": "120 h, read-out: SRB assay IC50", "experimental": "as §1, §2"}, "A549": {"system": "A549", "test": "SRB antiproliferative assay, A549", "assay_type": "cell-based", "conditions": "Homo sapiens", "experimental": "as §1, §2"}, "CaSki": {"system": "CaSki", "test": "SRB antiproliferative assay, CaSki", "assay_type": "cell-based", "conditions": "Homo sapiens, Ca-Ski, 120 h, read-out: SRB assay IC50", "experimental": "as §1, §2"}, "GM": {"system": "GM", "test": "SRB assay, normal cells GM", "assay_type": "cell-based, human", "conditions": "Homo sapiens, 120 h, read-out: SRB assay IC50", "experimental": "as §1, §2"}, "L929": {"system": "L929", "test": "SRB assay, normal cells L929", "assay_type": "cell-based, mouse", "conditions": "Mus musculus, L929, 120 h, read-out: SRB assay IC50", "experimental": "as §1, §2"}, "DU-145": {"system": "DU-145", "test": "SRB antiproliferative assay, DU-145", "assay_type": "cell-based", "conditions": "Homo sapiens, DU-145, 120 h, read-out: SRB assay IC50", "experimental": "as §1, §2"}, "[3]": {"conditions": "erythrocytes, read-out: Gardos Channel Assay IC50"}}, "note": "pIC50: −log10 of the molar value. Read-outs that look alike come from different tables or passages of the source.", "data": [{"compound": "OC1CC(c2ccccc2)(c2ccccc2)c2ccccc21", "note": "(centres unmarked) [Compound 3, 1-Hydroxy-3,3-Diphenylindane]", "values": [{"measurement": "pIC50", "setting": "[1]; [3]", "value": 6.09}, {"measurement": "inhibition at 10 µM", "setting": "[1]", "value": 100, "unit": "%"}, {"measurement": "melting point", "value": "133 to 135", "unit": "°C"}]}, {"compound": "Clc1ccc(COC(Cn2ccnc2)c2ccc(Cl)cc2Cl)c(Cl)c1", "note": "(centres unmarked) [miconazole]", "values": [{"measurement": "Gardos channel inhibition in vitro", "setting": "Gardos channel", "value": "inhibit the Gardos channel in vitro"}]}, {"compound": "3,3-Diphenyl-1-indanyl α-(4-methyltoluate) ether [Compound 17]", "values": [{"measurement": "Gardos Channel Assay Inhibition (%)", "setting": "[1]; measured at 10 μM compound", "value": 0, "unit": "%"}, {"measurement": "Mitogenic Assay Inhibition (%)", "setting": "[2]", "value": 76.0, "unit": "%"}]}, {"compound": "NC1=Nc2ccccc2C1(c1ccccc1)c1ccccc1", "note": "[Compound 1]", "values": [{"measurement": "pIC50", "setting": "[1]; [3]", "value": 6.38}, {"measurement": "inhibition at 10 µM", "setting": "[1]; measured at 10 μM compound", "value": 98, "unit": "%"}, {"measurement": "inhibition at 10 µM", "setting": "[2]; NIH3T3", "value": 97, "unit": "%"}, {"measurement": "pIC50", "setting": "[2]; NIH3T3", "value": 6.15}]}, {"compound": "C=CCOC1c2ccccc2C(c2ccccc2)(c2ccccc2)C1CC=C", "note": "(centres unmarked) [Compound 6, 2-(2′-Propenyl)-1-(2′-propenoxy)-3,3-diphenylindane]", "values": [{"measurement": "Gardos Channel Assay Inhibition (%)", "setting": "[1]; measured at 10 μM compound", "value": 35.0, "unit": "%"}, {"measurement": "pIC50", "setting": "[2]", "value": 5.47}, {"measurement": "Mitogenic Assay Inhibition (%)", "setting": "[2]", "value": 90.0, "unit": "%"}]}, {"compound": "N#CCC1C(=O)c2cc(Cl)ccc2C1(c1ccc(Cl)cc1)c1ccc(Cl)cc1", "note": "(centres unmarked) [Compound 10, 6-Chloro-2-cyanomethyl-3,3-di(4′-chlorophenyl)indanone]", "values": [{"measurement": "inhibition at 10 µM", "setting": "[1]; measured at 10 μM compound", "value": 49.5, "unit": "%"}, {"measurement": "inhibition at 10 µM", "setting": "[2]; NIH3T3", "value": 98, "unit": "%"}, {"measurement": "pIC50", "setting": "[2]; NIH3T3", "value": 5.48}]}, {"compound": "N#CCC1C(O)c2ccccc2C1(c1ccccc1)c1ccccc1", "note": "(centres unmarked) [Compound 13, 2-Cyanomethyl-3,3-diphenylindanol]", "values": [{"measurement": "pIC50", "setting": "[1]; [3]", "value": 5.80}, {"measurement": "inhibition at 10 µM", "setting": "[1]; measured at 10 μM compound", "value": 99.5, "unit": "%"}, {"measurement": "inhibition at 10 µM", "setting": "[2]; NIH3T3", "value": 12, "unit": "%"}, {"measurement": "melting point", "value": "79 to 85", "unit": "°C"}]}, {"compound": "Clc1ccc(COC(Cn2ccnc2)c2ccc(Cl)cc2Cl)cc1", "note": "(centres unmarked) [econazole]", "values": [{"measurement": "Gardos channel inhibition in vitro", "setting": "Gardos channel", "value": "inhibit the Gardos channel in vitro"}]}, {"compound": "O/N=C1\\CC(c2ccccc2)(c2ccccc2)c2ccccc21", "note": "[Compound 4, 1-N-Oxime-3,3-Diphenylindane]", "values": [{"measurement": "pIC50", "setting": "[1]; [3]", "value": 5.87}, {"measurement": "inhibition at 10 µM", "setting": "[1]; measured at 10 μM compound", "value": 100, "unit": "%"}, {"measurement": "melting point", "value": "138 to 141", "unit": "°C"}]}, {"compound": "c1ccc(C2(c3ccccc3)CC(OCc3ccc4ccccc4c3)c3ccccc32)cc1", "note": "(centres unmarked) [Compound 16, 3,3-Diphenyl-1-indanyl 2-naphthylmethyl ether]", "values": [{"measurement": "inhibition at 10 µM", "setting": "[1]; measured at 10 μM compound", "value": 0, "unit": "%"}, {"measurement": "inhibition at 10 µM", "setting": "[2]; NIH3T3", "value": 75, "unit": "%"}]}, {"compound": "COc1cc([C@@H]2c3cc4c(cc3[C@@H](O[C@@H]3O[C@@H]5CO[C@@H](C)O[C@H]5[C@H](O)[C@H]3O)[C@H]3COC(=O)[C@H]23)OCO4)cc(OC)c1O", "note": "[VP-16, Etoposide (VP-16), reference compound]", "values": [{"measurement": "pIC50", "setting": "HeLa", "value": "> 5.90"}, {"measurement": "pIC50", "setting": "U118MG", "value": 5.66}, {"measurement": "pIC50", "setting": "HEPG2", "value": "> 5.90"}, {"measurement": "pIC50", "setting": "ACHN", "value": "> 5.90"}, {"measurement": "pIC50", "setting": "MMRU; 120 h, read-out: SRB assay IC50", "value": "> 5.90"}, {"measurement": "pIC50", "setting": "MMRU; read-out: SRB IC50", "value": "> 5.60"}, {"measurement": "pIC50", "setting": "HT29; HT-29, 120 h, read-out: SRB assay IC50", "value": "> 5.90"}, {"measurement": "pIC50", "setting": "HT29; HT-29, read-out: SRB IC50", "value": 4.70}, {"measurement": "pIC50", "setting": "MDA-MB-231", "value": "> 5.90"}, {"measurement": "pIC50", "setting": "MCF7; MCF7, 120 h, read-out: SRB assay IC50", "value": "> 5.90"}, {"measurement": "pIC50", "setting": "MCF7; MCF7, read-out: SRB IC50", "value": "> 5.60"}, {"measurement": "pIC50", "setting": "SK-MEL-28", "value": "> 5.90"}, {"measurement": "pIC50", "setting": "HCT-15", "value": 5.89}, {"measurement": "pIC50", "setting": "HUVEC", "value": "> 5.90"}, {"measurement": "pIC50", "setting": "HTB174", "value": "> 5.90"}, {"measurement": "pIC50", "setting": "A549; A549, 120 h, read-out: SRB assay IC50", "value": "> 5.90"}, {"measurement": "pIC50", "setting": "A549; A549, read-out: SRB IC50", "value": 5.64}, {"measurement": "pIC50", "setting": "CaSki", "value": 5.74}, {"measurement": "pIC50", "setting": "GM", "value": 5.85}, {"measurement": "pIC50", "setting": "L929", "value": "> 5.90"}, {"measurement": "pIC50", "setting": "DU-145", "value": "> 5.90"}]}, {"compound": "CC(=O)OC1CC(c2ccccc2)(c2ccccc2)c2ccccc21", "note": "(centres unmarked) [Compound 7, 1-Acetoxy-3,3-diphenylindane]", "values": [{"measurement": "pIC50", "setting": "[1]", "value": 5.94}, {"measurement": "inhibition at 10 µM", "setting": "[1]; measured at 10 μM compound", "value": 88, "unit": "%"}, {"measurement": "melting point", "value": 90, "unit": "°C"}]}]}
